Test results from paper PMC9834240, “Senescent cells perturb intestinal stem cell differentiation through Ptk7 induced noncanonical Wnt and YAP signaling” (Nature Communications, 2023).
Several values for one entry are separate records, joined by “and”; a condition that tells them apart may be missing. Equal values may be shown once.

How the values were obtained:
Assay type in all cases: cell-based
[1] = system: mouse intestinal organoids; assay: cystic organoid percentage, organoids in conditioned media (SCM/QCM) with or without inhibitors or antibodies; conditions: SCM-exposed organoids
Procedure: Twenty-four hours before collecting conditioned media (CM), MEFs were washed with serum-free DMEM twice, and serum-free DMEM was added. After 24 h in serum-free DMEM, this CM was collected, filtered using Steriflip filters (Millipore, #SE1M179M6) to remove cell debris, and concentrated using centrifugal filter units (Amicon ultra-15 centricon; Millipore, # UFC900324). […] CM was filtered and dialyzed for 24–48 h to remove the inhibitors before concentration.
(§1) The jejunum part of the small intestine was removed, flushed with PBS, opened longitudinally, then cut into 0.5 cm pieces. The collected tissues were washed with ice cold PBS multiple times by vortexing and incubated in PBS containing 2.5 mM EDTA for 5 min at 37 °C. After gentle shaking and aspiration, tissues were incubated in PBS containing 5 mM EDTA for 7 min at 37 °C. Tissues were then washed with PBS to remove EDTA and vigorously shaken to release crypts. The released crypts were passed through 70 μm strainers, washed with PBS, and pelleted by centrifugation at 200 × g.
(§2) 3-4 biological replicates of organoids from different mice were used per condition. Organoids were cultured in the indicated media, inhibitors, antibodies and/or recombinant proteins for 5 d and fixed in 4% formaldehyde in PBS. Organoids were imaged with a 4× Plan Fluor objective (NA: 0.13, Nikon) on a Nikon Ti-E inverted microscope equipped with a Neo scMOS camera (Andor, Oxford Instruments), a linear encoded automated stage (Applied Scientific Instrumentation), all run by NIS Elements software (Nikon). Organoids were imaged in brightfield and images covering the whole well were stitched and focused into one image projection with an extended depth of focus module (EDF; Nikon). One hundred to 200 organoids per replicate per condition were counted and used for quantification. The number of budding organoids in each condition was normalized by the number of budding organoids in untreated or DMSO treated controls to calculate cystic organoid percentage:1 Cysticorganoidpercentage=100×1−Numberofbuddingorganoidsfromexperiment/Numberofbuddingorganoidsfromcontrol

[2] = system: YAP in mouse intestinal organoids; assay: whole mount immunostaining for YAP nuclear localization
Procedure: For whole mount staining, freshly passaged crypts were mixed with Matrigel (Corning, #356231) and mounted to µ-Slide 8 well chamber slides (ibidi, #80826). Media were changed every 2–3 d. 5 days later, organoids in the chamber slides were then fixed in 4% formaldehyde in PBS for 30 min, permeabilized with 0.5% Triton X-100 for 1 h, and incubated in blocking solution (3% normal donkey serum (Sigma-Aldrich, #566460) and 5% BSA (Sigma-Aldrich, #A7979) in 0.1% Triton X-100 + PBS) for 1 h. Primary and secondary antibodies were diluted in blocking solution and added to fixed organoids. Organoids were incubated with primary antibodies overnight at 4 °C and with secondary antibodies for 2 h. ProLong Diamond Antifade Mountant (Invitrogen, # P36970) was added. Images were acquired with a Yokogawa CSU-W1/Zeiss 3i Marianas spinning disk confocal microscopy system. For each organoid, Z-planes up to 100 μm with 1 or 1.5 μm z-steps were acquired to quantify the number of cell types.

[3] = system: mouse intestinal organoids; assay: inhibition of Wnt5a-induced cystic organoids; conditions: Wnt5a-treated organoids
Procedure: as §1, with “g. Resuspended crypts were mixed with Matrigel (Corning, #356231; Lot#8218007) and pipetted into culture plates. After mixture of crypts and Matrigel solidified, IntestiCult Organoid Growth Medium (Stem Cell Technologies, #06005; Lots #1000021927, #1000034230, #1000037372) was added. Seven days after seeding, organoids were resuspended in dissociation buffer (Gentle Cell Dissociation Reagent; Stem Cell Technologies, #07174), dissociated by pipetting, and seeded for experiments.” for “g.”
as §2

[4] = system: cytosolic Ca2+ in mouse intestinal organoids; assay: live Ca2+ imaging of mouse intestinal organoids (GCaMP6f/tdTomato: baselined area under curve, peak number, height, width); conditions: live organoids expressing GCaMP6f
Procedure: Z stacks were acquired every 10 s.
Z-stack images were converted to mean intensity projections and, where required; background was subtracted using a rolling ball algorithm. Segmentation was conducted on a max-projection over-time of the GCaMP6f channel using Cellpose’s pre-trained “Cytoplasm” classifier. Mean intensity traces were measured in each ROI over the time course in both the GCaMP6f and TdTomato channels using scikit-image[138]. Ca^2+ oscillation patterns were calculated in an unsupervised, automated manner using MATLAB. Mean intensity traces were smoothed using a Savitzky-Golay filter and peaks were identified using the “findpeaks” algorithm from the MATLAB Signal Processing Toolbox. Graphs for GCaMP6f/tdTomato fluorescence ratio, peak numbers, peak height, peak width and baselined area under the curve were generated using Python matplotlib and seaborn packages. Statistical analysis was performed using Python SciPy and scikit-post-hoc packages.

[5] = system: mouse intestinal organoids; assay: cystic organoid percentage, organoids treated with recombinant Wnt ligands (Wnt3a, Wnt5a, Wnt11); conditions: for percentage of cystic organoids: Fig. 4e, individual mice, n = 3; for induction of cystic organoids: recombinant Wnt ligand added to crypt cultures; for cystic organoid percentage: SF.3p, Untreated = 0
Procedure: as §1, with “g. Resuspended crypts were mixed with Matrigel (Corning, #356231; Lot#8218007) and pipetted into culture plates. After mixture of crypts and Matrigel solidified, IntestiCult Organoid Growth Medium (Stem Cell Technologies, #06005; Lots #1000021927, #1000034230, #1000037372) was added. Seven days after seeding, organoids were resuspended in dissociation buffer (Gentle Cell Dissociation Reagent; Stem Cell Technologies, #07174), dissociated by pipetting, and seeded for experiments.” for “g.”
as §2

[6] = system: β-Catenin-dependent Wnt signaling (HEK293-TB cells); assay: TOPbrite dual-luciferase Wnt reporter assay; conditions: SF.3e
Procedure: Generation of HEK293 cells stably expressing a TOPbrite firefly luciferase Wnt reporter and pRL-SV40 Renilla luciferase (HEK293-TB) was previously described. HEK293-TB cells were maintained in DMEM/F12 (50:50), supplemented with 10% FBS, 2 mM Glutamax (Gibco, #35050-061) and 40 μg/ml hygromycin (Cellgro, #30-240-CR). For the luciferase reporter assay, HEK293-TB cells were seeded in 96-well plates (Falcon, #353377). The next day, cells were treated with indicated Wnt ligands (50 ng/ml) or CM diluted in culture media. After 24 h, the firefly and Renilla luciferase activity was measured using Dual-Glo Luciferase Assay system (Promega, #E2940) on a Perkin Elmer EnVision multilabel reader. The ratios of firefly luminescence to Renilla luminescence were calculated and normalized to control samples that were not treated.

[7] = system: mouse intestinal organoids; assay: cystic organoid percentage, co-culture with quiescent or senescent intestinal fibroblasts; parameters: key: % = 100×(1 − budding organoids treated/budding organoids control); conditions: relative to DMSO = 0
Procedure: as §2
Mouse intestinal fibroblasts were purchased from Cell Biologics (#C57-6231) and cultured in Complete Fibroblast Medium (Cell Biologics, M2267) at 37 °C and 5% CO2. Cellular quiescence and senescence in mouse intestinal fibroblasts were induced by the similar methods described earlier for MEFs with minor modifications. Briefly, cellular quiescence was induced by culturing the fibroblasts in low serum (0.5% FBS), and cellular senescence was induced by 500 nM doxorubicin treatment for 5 days (doxorubicin; Sigma-Aldrich, #44583). Once cellular quiescence or senescence was induced, MEFs were maintained at 37 °C, 5% CO2, and 3% O2 for another 5 days. The quiescent or senescent fibroblasts were dissociated using 0.05% Trypsin-EDTA (Gibco, #25300-054) and counted for seeding. The same number of quiescent and senescent fibroblasts (5.2 × 10^4 cells) were mixed with intestinal organoids making total volume of 20 μl of Matrigel: organoid culture media mix, which was mounted on a 48 well plate.

## CN([C@@H](Cc1ccc(OS(=O)(=O)c2cccc3cnccc23)cc1)C(=O)N1CCN(c2ccccc2)CC1)S(=O)(=O)c1cccc2cnccc12 [KN-62]
[1]
  effect on cystic organoid phenotype: suppressed the cystic organoid phenotype
[2]
  effect on nuclear localization of YAP: reversed SCM- or Wnt5a-induced nuclear translocation of YAP

## O=C(O)c1ccc2c3c1cccc3c(=O)n1c3ccccc3nc21 [STO-609]
[1]
  effect on cystic organoid phenotype: suppressed the cystic organoid phenotype
[2]
  effect on nuclear localization of YAP: reversed SCM- or Wnt5a-induced nuclear translocation of YAP

## CN1CCN(CCCN2c3ccccc3Sc3ccc(C(F)(F)F)cc32)CC1 [TFP, Trifluoperazine]
[1]
  effect on cystic organoid phenotype: reduced the percentage of cystic organoids
[3]
  effect on Wnt5a-induced cystic organoid phenotype: reduced the percentage of cystic organoids
[2]
  effect on nuclear localization of YAP: reversed SCM- or Wnt5a-induced nuclear translocation of YAP

## Wnt3a [reference compound]
[4]
  effect on cytosolic Ca2+ levels and oscillations: decreased cytosolic Ca^2+ levels
[5]; Wnt3a 25 ng/ml
  percentage of cystic organoids: 7.495% and 3.142% and 6.766%
[5]; Wnt3a 50 ng/ml
  percentage of cystic organoids: 18.7879% and 6.422% and 6.8556%
[5]; Wnt3a 100 ng/ml
  percentage of cystic organoids: 13.092% and 2.902% and 16.5461%
[5]; Wnt3a 250 ng/ml
  percentage of cystic organoids: 21.7379% and 11.3578% and 13.1232%
[5]; Wnt3a 500 ng/ml
  percentage of cystic organoids: 37.371% and 19.4444% and 31.0445%
[5]
  induction of cystic organoids: dose-dependently increased organoids with cystic morphology
[6]; replicate 1
  TOPbrite dual-luciferase Wnt reporter activity: 83.0786
[6]; replicate 2
  TOPbrite dual-luciferase Wnt reporter activity: 67.4901
[6]; replicate 3
  TOPbrite dual-luciferase Wnt reporter activity: 77.6835
[6]; replicate 4
  TOPbrite dual-luciferase Wnt reporter activity: 73.6039

## cyclosporin A
[7]; 1 uM CsA, no fibroblasts, replicate 1
  cystic organoids (sheet SF.5d): -0.1051
[7]; 1 uM CsA, no fibroblasts, replicate 2
  cystic organoids (sheet SF.5d): -6.5368
[7]; 1 uM CsA, no fibroblasts, replicate 3
  cystic organoids (sheet SF.5d): 5.663
[7]; Q + 1um CsA (quiescent fibroblasts), replicate 1
  cystic organoids (sheet SF.5d): 19.8791
[7]; Q + 1um CsA (quiescent fibroblasts), replicate 2
  cystic organoids (sheet SF.5d): 16.6126
[7]; Q + 1um CsA (quiescent fibroblasts), replicate 3
  cystic organoids (sheet SF.5d): 9.858
[7]; SEN + 1uM CsA (senescent fibroblasts), replicate 1
  cystic organoids (sheet SF.5d): 45.7387
[7]; SEN + 1uM CsA (senescent fibroblasts), replicate 2
  cystic organoids (sheet SF.5d): 66.7022
[7]; SEN + 1uM CsA (senescent fibroblasts), replicate 3
  cystic organoids (sheet SF.5d): 42.5108
[1]
  effect on cystic organoid phenotype: had no effect on this phenotype

B1: Wnt11: noncanonical Wnt ligand; recombinant protein, R&D Systems 6179-WN-010 (protein, UniProt O96014 25-354, looked up)
Protein Wnt-11: IKWLALSKTPSALALNQTQHCKQLEGLVSAQVQLCRSNLELMHTVVHAAREVMKACRRAFADMRWNCSSIELAPNYLLDLERGTRESAFVYALSAAAISHAIARACTSGDLPGCSCGPVPGEPPGPGNRWGGCADNLSYGLLMGAKFSDAPMKVKKTGSQANKLMRLHNSEVGRQALRASLEMKCKCHGVSGSCSIRTCWKGLQELQDVAADLKTRYLSATKVVHRPMGTRKHLVPKDLDIRPVKDSELVYLQSSPDFCMKNEKVGSHGTQDRQCNKTSNGSDSCDLMCCGRGYNPYTDRVVERCHCKYHWCCYVTCRRCERTVERYVCK
[5]; 25ng/ml, replicate 1
  cystic organoid percentage: 1.8358
[5]; 25ng/ml, replicate 2
  cystic organoid percentage: -0.2717
[5]; 25ng/ml, replicate 3
  cystic organoid percentage: -1.279
[5]; 50ng/ml, replicate 1
  cystic organoid percentage: -0.06739
[5]; 50ng/ml, replicate 2
  cystic organoid percentage: -5.163
[5]; 50ng/ml, replicate 3
  cystic organoid percentage: 1.176
[5]; 100ng/ml, replicate 1
  cystic organoid percentage: -0.2558
[5]; 100ng/ml, replicate 2
  cystic organoid percentage: -1.25
[5]; 100ng/ml, replicate 3
  cystic organoid percentage: 2.262
[5]; 250 ng/ml, replicate 1
  cystic organoid percentage: 2.331
[5]; 250 ng/ml, replicate 2
  cystic organoid percentage: -7.143
[5]; 250 ng/ml, replicate 3
  cystic organoid percentage: 1.176
[5]; 500ng/ml, replicate 1
  cystic organoid percentage: 2.331
[5]; 500ng/ml, replicate 2
  cystic organoid percentage: -1.6129
[5]; 500ng/ml, replicate 3
  cystic organoid percentage: 1.42
[5]; 1ug/ml, replicate 1
  cystic organoid percentage: 2.516
[5]; 1ug/ml, replicate 3
  cystic organoid percentage: -0.8403
[5]
  induction of cystic organoids: failed to induced cystic organoids
[6]; replicate 1
  TOPbrite dual-luciferase Wnt reporter activity: 0.9689
[6]; replicate 2
  TOPbrite dual-luciferase Wnt reporter activity: 1.428
[6]; replicate 3
  TOPbrite dual-luciferase Wnt reporter activity: 1.229
[6]; replicate 4
  TOPbrite dual-luciferase Wnt reporter activity: 1.621
